# Reference: ChEMBL document CHEMBL1152474, “Synthesis and investigation of anti-inflammatory activity and gastric ulcerogenicity of novel nitric oxide-donating pyrazoline derivatives” (Eur J Med Chem, 2009)
# Assays:
# [1] = Induction of NO release per mol of compound in phosphate buffer at pH 7.4 at 100 uM after 1 hr by Griess assay; type: physicochemical; conditions: pH 7.4, 1 h
# [2] = Induction of NO release per mol of compound in phosphate buffer at pH 7.4 at 100 uM after 2 hrs by Griess assay; type: physicochemical; conditions: pH 7.4, 2 h
# [3] = Induction of NO release per mol of compound in phosphate buffer at pH 7.4 at 100 uM after 3 hrs by Griess assay; type: physicochemical; conditions: pH 7.4, 3 h
# [4] = Induction of NO release per mol of compound in phosphate buffer at pH 7.4 at 100 uM after 4 hrs by Griess assay; type: physicochemical; conditions: pH 7.4, 4 h
# [5] = Induction of NO release per mol of compound in phosphate buffer at pH 7.4 at 100 uM after 5 hrs by Griess assay; type: physicochemical; conditions: pH 7.4, 5 h
# [6] = Induction of NO release per mol of compound in phosphate buffer at pH 7.4 at 100 uM after 6 hrs by Griess assay; type: physicochemical; conditions: pH 7.4, 6 h
# Rattus norvegicus [7] = experiment: Antiinflammatory activity in albino rat assessed as inhibition of carrageenan-induced paw edema at 100 mg/kg, po treated for 30 mins measured after 1 hr of carrageenan challenge; type: functional
# Rattus norvegicus [8] = experiment: Antiinflammatory activity in albino rat assessed as inhibition of carrageenan-induced paw edema at 100 mg/kg, po treated for 30 mins measured after 2 hrs of carrageenan challenge; type: functional
# Rattus norvegicus [9] = experiment: Antiinflammatory activity in albino rat assessed as inhibition of carrageenan-induced paw edema at 100 mg/kg, po treated for 30 mins measured after 3 hrs of carrageenan challenge; type: functional
# Rattus norvegicus [10] = experiment: Gastrotoxicity in albino rat assessed as ulcer index at 100 mg/kg, po after 5 hrs; type: toxicity, organism-based; design: dose 100 mg/kg, route oral; conditions: in vivo
# [11] = Induction of NO release in phosphate buffer at pH 1 at 100 uM by Griess assay; type: physicochemical; conditions: pH 1, 100 µM
# Rattus norvegicus [12] = experiment: Reduction in 5-(2,6-Dichlorophenyl)-4,5-dihydro-3-(4-methoxyphenyl)-1H-pyrazole-induced ulcer in albino rat at 100 mg/kg, po after 5 hrs; type: functional; design: scale not given: the % may be the effect or the level left
# Rattus norvegicus [13] = experiment: Reduction in 1-(2-Bromoacetyl)-5-(2,6-dichlorophenyl)-4,5-dihydro-3-(4-methoxyphenyl)-1H-pyrazole-induced ulcer in albino rat at 100 mg/kg, po after 5 hrs; type: functional; design: scale not given: the % may be the effect or the level left
# Rattus norvegicus [14] = experiment: Reduction in 4,5-Dihydro-5-(2,4-dimethoxyphenyl)-3-(3,4-dimethoxyphenyl)-1H-pyrazole-induced ulcer in albino rat at 100 mg/kg, po after 5 hrs; type: functional; design: scale not given: the % may be the effect or the level left
# Rattus norvegicus [15] = experiment: Reduction in 1-(2-Bromopropionyl)-4,5-dihydro-5-(2,4-dimethoxyphenyl)-3-(3,4-dimethoxyphenyl)-1H-pyrazole-induced ulcer in albino rat at 100 mg/kg, po after 5 hrs; type: functional; design: scale not given: the % may be the effect or the level left
# Rattus norvegicus [16] = experiment: Reduction in 5-(2-furyl)-4,5-dihydro-3-(3,4-dimethoxyphenyl)-1H-pyrazole-induced ulcer in albino rat at 100 mg/kg, po after 5 hrs; type: functional; design: scale not given: the % may be the effect or the level left
# Rattus norvegicus [17] = experiment: Reduction in 1-(2-Bromoacetyl)-5-(2-furyl)-4,5-dihydro-3-(3,4-dimethoxyphenyl)-1H-pyrazole-induced ulcer in albino rat at 100 mg/kg, po after 5 hrs; type: functional; design: scale not given: the % may be the effect or the level left
# Rattus norvegicus [18] = experiment: Reduction in 1-(2-Bromopropionyl)-5-(2-furyl)-4,5-dihydro-3-(3,4-dimethoxyphenyl)-1H-pyrazole-induced ulcer in albino rat at 100 mg/kg, po after 5 hrs; type: functional; design: scale not given: the % may be the effect or the level left
# Rattus norvegicus [19] = experiment: Reduction in 1-(2-Bromoacetyl)-4,5-dihydro-5-(2,4-dimethoxyphenyl)-3-(3,4-dimethoxyphenyl)-1H-pyrazole-induced ulcer in albino rat at 100 mg/kg, po after 5 hrs; type: functional; design: scale not given: the % may be the effect or the level left
SMILES,NO release [1] [mol/mol],NO release [2] [mol/mol],NO release [3] [mol/mol],NO release [4] [mol/mol],NO release [5] [mol/mol],NO release [6] [mol/mol],Activity [11],inhibition in vivo at 100 mg/kg (Rattus norvegicus [7]) [%],inhibition in vivo at 100 mg/kg (Rattus norvegicus [8]) [%],inhibition in vivo at 100 mg/kg (Rattus norvegicus [9]) [%],UI (Rattus norvegicus [10]),Activity (Rattus norvegicus [12]) [%],Activity (Rattus norvegicus [13]) [%],Activity (Rattus norvegicus [14]) [%],Activity (Rattus norvegicus [15]) [%],Activity (Rattus norvegicus [16]) [%],Activity (Rattus norvegicus [17]) [%],Activity (Rattus norvegicus [18]) [%],Activity (Rattus norvegicus [19]) [%]
COc1ccc(C2=NN(C(=O)CO[N+](=O)[O-])C(c3c(Cl)cccc3Cl)C2)cc1 (stereo not drawn),0.195,0.295,0.356,0.451,0.656,0.593,Not Active,34,42,52,0,96,93,,,,,,
COc1ccc(C2=NNC(c3c(Cl)cccc3Cl)C2)cc1OC (stereo not drawn),,,,,,,,26,49,58,3,,,,,,,,
COc1ccc(C2CC(c3ccc(OC)c(OC)c3)=NN2)c(OC)c1 (stereo not drawn),,,,,,,,38,39,42,7,,,,,,,,
COc1ccc(C2=NN(C(=O)CBr)C(c3c(Cl)cccc3Cl)C2)cc1OC (stereo not drawn),,,,,,,,48,58,69,3,,,,,,,,
COc1ccc(C2CC(c3ccc(OC)c(OC)c3)=NN2C(=O)C(C)Br)c(OC)c1 (stereo not drawn),,,,,,,,58,63,69,23,,,,,,,,
COc1ccc(C2=NNC(c3ccco3)C2)cc1OC (stereo not drawn),,,,,,,Not Active,45,53,60,26.5,,,,,,,,
COc1ccc(C2CC(c3ccc(OC)c(OC)c3)=NN2C(=O)CO[N+](=O)[O-])c(OC)c1 (stereo not drawn),0.329,0.391,0.433,0.523,0.78,0.588,Not Active,38,48,58,5,,,28,,,,,83
COc1ccc(C2=NN(C(=O)C(C)Br)C(c3ccco3)C2)cc1OC (stereo not drawn),,,,,,,,22,36,42,10,,,,,,,,
COc1ccc(C2=NN(C(=O)C(C)Br)C(c3c(Cl)cccc3Cl)C2)cc1OC (stereo not drawn),,,,,,,,51,56,60,10,,,,,,,,
COc1ccc(C2CC(c3ccc(OC)c(OC)c3)=NN2C(=O)CBr)c(OC)c1 (stereo not drawn),,,,,,,,53,67,71,30,,,,,,,,
COc1ccc2c(c1)c(CC(=O)O)c(C)n2C(=O)c1ccc(Cl)cc1 [INDOMETHACIN],,,,,,,,58,67,82,43.5,,,,,,,,
COc1ccc(C2=NNC(c3c(Cl)cccc3Cl)C2)cc1 (stereo not drawn),,,,,,,,54,58,60,31,,,,,,,,
COc1ccc(C2CC(c3ccc(OC)c(OC)c3)=NN2C(=O)CNc2ccc(/C(C)=N/O)cc2)c(OC)c1 (stereo not drawn),0.137,0.114,0.148,0.194,0.302,0.268,Not Active,27,44,46,2,,,71,,,,,93
COc1ccc(C2=NN(C(=O)CBr)C(c3c(Cl)cccc3Cl)C2)cc1 (stereo not drawn),,,,,,,,43,49,7,6,,,,,,,,

# Further lines, with some results ahead:
NO release [1] [mol/mol],NO release [2] [mol/mol],NO release [3] [mol/mol],NO release [4] [mol/mol],NO release [5] [mol/mol],NO release [6] [mol/mol],Activity [11],SMILES,inhibition in vivo at 100 mg/kg (Rattus norvegicus [7]) [%],inhibition in vivo at 100 mg/kg (Rattus norvegicus [8]) [%],inhibition in vivo at 100 mg/kg (Rattus norvegicus [9]) [%],UI (Rattus norvegicus [10]),Activity (Rattus norvegicus [12]) [%],Activity (Rattus norvegicus [13]) [%],Activity (Rattus norvegicus [14]) [%],Activity (Rattus norvegicus [15]) [%],Activity (Rattus norvegicus [16]) [%],Activity (Rattus norvegicus [17]) [%],Activity (Rattus norvegicus [18]) [%],Activity (Rattus norvegicus [19]) [%]
0.098,0.16,0.438,0.128,0.065,0.09,Not Active,COc1ccc(C2CC(c3ccc(OC)c(OC)c3)=NN2C(=O)C(C)O[N+](=O)[O-])c(OC)c1 (stereo not drawn),44,61,56,3,,,57,86,,,,
0.118,0.128,0.138,0.167,0.277,0.267,Not Active,COc1ccc(C2=NN(C(=O)CNc3ccc(/C(C)=N/O)cc3)C(c3ccco3)C2)cc1OC (stereo not drawn),38,46,46,0,,,,,96,92,,
0.126,0.211,0.281,0.483,0.614,0.535,Not Active,COc1ccc(C2=NN(C(=O)CO[N+](=O)[O-])C(c3ccco3)C2)cc1OC (stereo not drawn),32,37,43,2,,,,,92,84,,
0.078,0.19,0.398,0.2,0.125,0.087,Not Active,COc1ccc(C2=NN(C(=O)C(C)O[N+](=O)[O-])C(c3ccco3)C2)cc1OC (stereo not drawn),35,39,42,7,,,,,73,,30,
0.147,0.395,0.516,0.555,0.738,0.625,Not Active,COc1ccc(C2=NN(C(=O)CO[N+](=O)[O-])C(c3c(Cl)cccc3Cl)C2)cc1OC (stereo not drawn),40,49,58,4,,,,,,,,
,,,,,,Not Active,COc1ccc(C2=NN(C(=O)CBr)C(c3ccco3)C2)cc1OC (stereo not drawn),38,46,51,13,,,,,,,,
0.123,0.19,0.501,0.255,0.145,0.114,Not Active,COc1ccc(C2=NN(C(=O)C(C)O[N+](=O)[O-])C(c3c(Cl)cccc3Cl)C2)cc1OC (stereo not drawn),47,53,55,7,,,,,,,,
